# Test results from ChEMBL document CHEMBL1148627, “Design and synthesis of heterocyclic malonyl-CoA decarboxylase inhibitors” (Bioorg Med Chem Lett, 2006).
# Biological target: T1, Malonyl-CoA decarboxylase, mitochondrial (Homo sapiens, UniProt O95822)
# T1 sequence (O95822 whole entry): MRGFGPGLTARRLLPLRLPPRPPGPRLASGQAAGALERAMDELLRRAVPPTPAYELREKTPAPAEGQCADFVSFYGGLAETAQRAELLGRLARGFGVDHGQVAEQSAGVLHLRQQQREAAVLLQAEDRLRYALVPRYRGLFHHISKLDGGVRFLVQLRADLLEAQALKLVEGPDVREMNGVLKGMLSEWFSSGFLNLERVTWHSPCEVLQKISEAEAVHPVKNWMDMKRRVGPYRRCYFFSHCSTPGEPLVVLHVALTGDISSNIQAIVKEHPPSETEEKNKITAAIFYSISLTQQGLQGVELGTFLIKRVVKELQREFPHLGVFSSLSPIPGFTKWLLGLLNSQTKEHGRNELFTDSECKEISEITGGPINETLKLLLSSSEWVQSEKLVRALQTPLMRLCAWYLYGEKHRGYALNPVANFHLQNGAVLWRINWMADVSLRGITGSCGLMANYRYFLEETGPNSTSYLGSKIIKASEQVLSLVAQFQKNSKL
# Assay: Inhibitory activity against recombinant human MCD MBP fusion protein
row,SMILES,IC50 [nM]
1,CCC(C)c1ncc(/C=C/C(=O)O)n1-c1ccc(C(O)(C(F)(F)F)C(F)(F)F)cc1 (stereo not drawn),523
2,CC(C)NC(=O)CCC1CN(Cc2cnc(C(C)C)n2-c2ccc(C(O)(C(F)(F)F)C(F)(F)F)cc2)CCO1 (stereo not drawn),1080
3,CC(C)c1nc(C(F)(F)F)cn1-c1ccc(C(O)(C(F)(F)F)C(F)(F)F)cc1,567
4,CCCCNCc1cnc(C(C)C)n1-c1ccc(C(O)(C(F)(F)F)C(F)(F)F)cc1,482
5,OCc1cnc(-c2ccccn2)n1-c1ccc(C(O)(C(F)(F)F)C(F)(F)F)cc1,791

# These reach a lower IC50. Values come first.
row,IC50 [nM],SMILES
1,341,CCC(C)c1ncc(CNC(C)C)n1-c1ccc(C(O)(C(F)(F)F)C(F)(F)F)cc1 (stereo not drawn)
2,321,CCC(C)c1ncc(CO)n1-c1ccc(C(O)(C(F)(F)F)C(F)(F)F)cc1 (stereo not drawn)
3,243,CC(C)c1nc(CO)cn1-c1ccc(C(O)(C(F)(F)F)C(F)(F)F)cc1
